Measured values taken from US12384800B2, “Antitumoral compounds” (priority 2017, dated 2025).

Tests used:
Assay in all cases: cells
[1] = tested on: HT29 cells (colorectal adenocarcinoma); details: HT29, SRB; for TGI: total cell growth inhibition; for TGI / CC50: 72 hours; for CC50: read-out: LC50, 50% net cell killing; for GI50: 72 hours treatment
Description: (§1) The aim of this assay is to evaluate the in vitro cytostatic (ability to delay or arrest tumor cell growth) or cytotoxic (ability to kill tumor cells) activity of the samples being tested.
(§2) A colorimetric assay, using sulforhodamine B (SRB) reaction has been adapted to provide a quantitative measurement of cell growth and viability (following the technique described by Skehan et al. J. Natl. Cancer Inst. 1990, 82, 1107-1112). Another colorimetric assay based on 3-(4,5-Dimethylthiazol-2-yl)-2,5-diphenyltetrazolium bromide (MTT) reduction to a purple formazan has been also used to assess the antiproliferative activity (following the technique described by Mosmann et al. J. Immunol. Meth. 1983, 65, 55-63).
(§3) These forms of assays employ 96-well cell culture microplates following the standards of the American National Standards Institute and the Society for Laboratory Automation and Screening (ANSI SLAS 1-2004 (R2012) Oct. 12, 2011. All the cell lines used in this study were obtained from the American Type Culture Collection (ATCC) and derive from different types of human cancer.
(§4) A549, HT29, MDA-MB-231 and PSN1 cells were maintained in Dulbecco's Modified Eagle Medium (DMEM) while PC-3 and 22Rv1 cells were maintained in Roswell Park Memorial Institute Medium (RPMI). All cell lines were supplemented with 10% Fetal Bovine Serum (FBS), 2 mM L-glutamine, 100 U/mL penicillin, and 100 […] at 37° C., 5% CO2 and 98% humidity. For the experiments, cells were harvested from subconfluent cultures using trypsinization and resuspended in fresh medium before counting and plating.
(§5) A549, HT29, MDA-MB-231 and PSN1 cells were seeded in 96 well microtiter plates, at 5000 cells per well in aliquots of 150 μL, and allowed to attach to the plate surface for 18 hours (overnight) in drug free medium. After that, one control (untreated) plate of each cell line was fixed (as described below) and used for time zero reference value. Culture plates were then treated with test compounds (50 μL aliquots of 4× stock solutions in complete culture medium plus 4% DMSO) using ten ⅖ serial dilutions (concentrations ranging from 10 to 0.003 μg/mL) and triplicate cultures (1% final concentration in DMSO). After 72 hours treatment, the antitumor effect was measured by using the SRB methodology: Briefly, cells were washed twice with PBS, fixed for 15 min in 1% glutaraldehyde solution at room temperature, rinsed twice in PBS, and stained in 0.4% SRB solution for 30 min at room temperature. Cells were then rinsed several times with 1% acetic acid solution and air-dried at room temperature.
(§6) Effects on cell growth and survival were estimated by applying the NCI algorithm (Boyd M R and Paull K D. Drug Dev. Res. 1995, 34, 91-104). The values obtained in triplicate cultures were fitted by nonlinear regression to a four-parameters logistic curve by nonlinear regression analysis.

[2] = tested on: MDA-MB-231 cells (breast adenocarcinoma); details: for TGI: total cell growth inhibition; for TGI / CC50: 72 hours; for CC50: read-out: LC50, 50% net cell killing
Description: as §1, §2, §3, §4, §5, §6

[3] = tested on: A549 cells (lung carcinoma, NSCLC); details: A549, SRB; for GI50: 72 hours treatment; for TGI: total cell growth inhibition; for TGI / CC50: 72 hours; for CC50: read-out: LC50, 50% net cell killing
Description: as §1, §2, §3, §4, §5, §6

[4] = tested on: PSN1 cells (pancreas adenocarcinoma); details: PSN1, SRB; for GI50: 72 hours treatment; for TGI: total cell growth inhibition; for TGI / CC50: 72 hours; for CC50: read-out: LC50, 50% net cell killing
Description: as §1, §2, §3, §4, §5, §6

[5] = MDA-MB-231, 72 hours treatment, SRB

SMILES | TGI [1] | CC50 [1] | GI50 [2, 5] | TGI ([2]; MDA-MB-231, SRB) | CC50 ([2]; MDA-MB-231, SRB) | GI50 [3] | TGI [3] | CC50 [3] | GI50 [1] | GI50 [4] | TGI [4] | CC50 [4] | GI50 ([2]; Homo sapiens, MDA-MB-231, 72 h)
C=CCOC(=O)NC[C@H]1Cc2c([nH]c3ccccc23)[C@@]2(CS[C@@H]3c4c(OC(C)=O)c(C)c5c(c4[C@H](COC2=O)N2[C@@H]3[C@H]3c4c(cc(C)c(OC)c4O)C[C@@H]([C@@H]2C#N)N3C)OCO5)N1 [Compound 10-R] | >1.14E−07 Molar | > 114 nM | – | – | – | – | – | – | – | – | – | – | –
COc1ccc2[nH]c3c(c2c1)C[C@H](CN)N[C@]31CS[C@@H]2c3c(OC(C)=O)c(C)c4c(c3[C@H](COC1=O)N1[C@@H]2[C@H]2c3c(cc(C)c(OC)c3O)C[C@@H]([C@@H]1C#N)N2C)OCO4 [Compound 26-R] | 1.58E−09 Molar | > 122 nM | 1.17 nM | 1.22E−09 Molar | 1.46 nM | 1.94 nM | 3.40E−09 Molar | > 122 nM | 0.729 nM | 0.972 nM | 1.70E−09 Molar | 3.52 nM | –
C=CCOC(=O)NC[C@@H]1Cc2c(oc3ccccc23)[C@@]2(CS[C@@H]3c4c(OC(C)=O)c(C)c5c(c4[C@H](COC2=O)N2[C@@H]3[C@H]3c4c(cc(C)c(OC)c4O)C[C@@H]([C@@H]2C#N)N3C)OCO5)N1 [Compound 45-S] | – | – | – | – | – | – | – | – | – | – | – | – | 11.7 nM
COc1ccc2oc3c(c2c1)CCN[C@]31CS[C@@H]2c3c(OC(C)=O)c(C)c4c(c3[C@H](COC1=O)N1[C@@H]2[C@H]2c3c(cc(C)c(OC)c3O)C[C@@H]([C@@H]1C#N)N2C)OCO4 [Compound 34] | 8.55E−08 Molar | 125 nM | 45.3 nM | 7.67E−08 Molar | 112 nM | 59.1 nM | 8.05E−08 Molar | > 126 nM | 54.1 nM | 54.1 nM | 5.91E−08 Molar | > 126 nM | –
COc1c(C)cc2c(c1O)[C@@H]1[C@@H]3[C@@H]4SC[C@]5(N[C@@H](CO)Cc6c5oc5ccccc65)C(=O)OC[C@@H](c5c6c(c(C)c(OC(C)=O)c54)OCO6)N3[C@@H](C#N)[C@H](C2)N1C [Compound 38-R] | 5.91E−10 Molar | > 126 nM | 0.453 nM | 8.43E−10 Molar | 2.01 nM | 0.654 nM | 1.04E−09 Molar | > 126 nM | 0.541 nM | 0.654 nM | 9.94E−10 Molar | 1.76 nM | –
COc1ccc2[nH]c3c(c2c1)C[C@@H](C(=O)O)N[C@]31CS[C@@H]2c3c(OC(C)=O)c(C)c4c(c3[C@H](COC1=O)N1[C@@H]2[C@H]2c3c(cc(C)c(OC)c3O)C[C@@H]([C@@H]1C#N)N2C)OCO4 [Compound 28-S, reference compound] | 3.46E−07 Molar | 633 nM | 167 nM | 2.51E−07 Molar | 394 nM | 489 nM | >1.19E−06 Molar | > 1190 nM | 251 nM | 251 nM | 3.94E−07 Molar | 692 nM | –
COc1c(C)cc2c(c1O)[C@@H]1[C@@H]3[C@@H]4SC[C@]5(N[C@H](C)Cc6c5[nH]c5ccccc65)C(=O)OC[C@@H](c5c6c(c(C)c(OC(C)=O)c54)OCO6)N3[C@@H](C#N)[C@H](C2)N1C [A, reference compound] | 8.36E−09 Molar | > 129 nM | 7.07 nM | 9.38E−09 Molar | 14.1 nM | 8.36 nM | 8.87E−09 Molar | > 129 nM | – | 12.9 nM | 1.54E−08 Molar | 19.3 nM | –
C=CCOC(=O)NC[C@H]1Cc2c([nH]c3ccc(OC)cc23)[C@@]2(CS[C@@H]3c4c(OC(C)=O)c(C)c5c(c4[C@H](COC2=O)N2[C@@H]3[C@H]3c4c(cc(C)c(OC)c4O)C[C@@H]([C@@H]2C#N)N3C)OCO5)N1 [Compound 25-R] | 2.76E−09 Molar | > 110 nM | – | 2.54E−09 Molar | 8.38 nM | 1.32 nM | 2.43E−09 Molar | 9.92 nM | 1.54 nM | – | 2.32E−09 Molar | 6.73 nM | –
COc1c(C)cc2c(c1O)[C@@H]1[C@@H]3[C@@H]4SC[C@]5(N[C@H](CN)Cc6c5[nH]c5ccccc65)C(=O)OC[C@@H](c5c6c(c(C)c(OC(C)=O)c54)OCO6)N3[C@@H](C#N)[C@H](C2)N1C [Compound 11-S] | >1.26E−07 Molar | > 126 nM | – | – | – | – | – | > 126 nM | – | – | – | – | –
COc1ccc2[nH]c3c(c2c1)C[C@H](C(=O)O)N[C@]31CS[C@@H]2c3c(OC(C)=O)c(C)c4c(c3[C@H](COC1=O)N1[C@@H]2[C@H]2c3c(cc(C)c(OC)c3O)C[C@@H]([C@@H]1C#N)N2C)OCO4 [Compound 28-R, reference compound] | 3.34E−08 Molar | > 1190 nM | 19.1 nM | 3.22E−08 Molar | 91.9 nM | 167 nM | 3.58E−07 Molar | > 1190 nM | 31 nM | 21.5 nM | 3.58E−08 Molar | 66.8 nM | –
COc1ccc2[nH]c3c(c2c1)C[C@H](CO)N[C@]31CS[C@@H]2c3c(OC(C)=O)c(C)c4c(c3[C@H](COC1=O)N1[C@@H]2[C@H]2c3c(cc(C)c(OC)c3O)C[C@@H]([C@@H]1C#N)N2C)OCO4 [Compound 18-R] | 1.34E−09 Molar | – | – | 1.34E−09 Molar | 1.46 nM | – | 1.34E−09 Molar | – | – | 0.57 nM | 1.06E−09 Molar | – | –
C=CCOC(=O)NC[C@@H]1Cc2c([nH]c3ccc(OC)cc23)[C@@]2(CS[C@@H]3c4c(OC(C)=O)c(C)c5c(c4[C@H](COC2=O)N2[C@@H]3[C@H]3c4c(cc(C)c(OC)c4O)C[C@@H]([C@@H]2C#N)N3C)OCO5)N1 [Compound 25-S] | 7.72E−09 Molar | > 110 nM | 5.84 nM | 9.04E−09 Molar | 15.4 nM | 7.17 nM | 7.61E−09 Molar | > 110 nM | 7.17 nM | 6.84 nM | 9.26E−09 Molar | 14.3 nM | –
COc1c(C)cc2c(c1O)[C@@H]1[C@@H]3[C@@H]4SC[C@]5(N[C@@H](CO)Cc6c5[nH]c5ccccc65)C(=O)OC[C@@H](c5c6c(c(C)c(OC(C)=O)c54)OCO6)N3[C@@H](C#N)[C@H](C2)N1C [Compound 3-R] | >1.26E−07 Molar | > 126 nM | – | 5.04E−10 Molar | 1.25 nM | 403 nM | 5.79E−10 Molar | > 126 nM | – | 0.39 nM | 6.05E−10 Molar | > 126 nM | –
COc1c(C)cc2c(c1O)[C@@H]1[C@@H]3[C@@H]4SC[C@]5(N[C@@H](CN)Cc6c5[nH]c5ccccc65)C(=O)OC[C@@H](c5c6c(c(C)c(OC(C)=O)c54)OCO6)N3[C@@H](C#N)[C@H](C2)N1C [Compound 11-R] | >1.26E−07 Molar | > 126 nM | – | – | – | 1.77 nM | 4.54E−09 Molar | > 126 nM | 1.39 nM | 1.39 nM | 1.89E−09 Molar | > 126 nM | –
